The numbers were not newly measured in patent US8143237B2, “Anti-cancer drugs, and uses relating for malignant melanoma and other cancers” (Kasina Laila Innova Pharmaceuticals Private Limited, priority 2009, dated 2012), which cites them from elsewhere.

This data set relates to malignant melanoma. To be noted: single-agent, malignant melanoma patients; cited from earlier work.

For the compound `CN(C)N=Nc1[nH]cnc1C(N)=O` [DTIC, 5-(3,3-dimethyl-1-trizeno)-imidazole-4-carboxamide, reference compound], the Complete responses result was “less than 5 % of patients”.
